Results reported in US11813306B2, “Cyclic tetramer compounds as proprotein convertase subtilisin/kexin type 9 (PCSK9) inhibitors for the treatment of metabolic disorders” (NOVARTIS AG, priority 2018, dated 2023).
Read-outs that look alike come from different tables or passages of the source. One block for each compound: values may come before it.

Experiments:
[1] = DCM
human PCSK9 = human PCSK9 (Homo sapiens, UniProt Q8NBP7); assay: PCSK9 ligand binding assay (TR-FRET): interference with binding of human PCSK9 to human LDLR; details: for IC50: Human PCSK9 Alexa Fluor 647 / Human LDLR extracellular domain-Europium Kryptate; for Max % inhibition: efficacy (Amax), 100% = 1 uM unlabeled human PCSK9, 0% = DMSO
Chain of human PCSK9 (Q8NBP7 153-692): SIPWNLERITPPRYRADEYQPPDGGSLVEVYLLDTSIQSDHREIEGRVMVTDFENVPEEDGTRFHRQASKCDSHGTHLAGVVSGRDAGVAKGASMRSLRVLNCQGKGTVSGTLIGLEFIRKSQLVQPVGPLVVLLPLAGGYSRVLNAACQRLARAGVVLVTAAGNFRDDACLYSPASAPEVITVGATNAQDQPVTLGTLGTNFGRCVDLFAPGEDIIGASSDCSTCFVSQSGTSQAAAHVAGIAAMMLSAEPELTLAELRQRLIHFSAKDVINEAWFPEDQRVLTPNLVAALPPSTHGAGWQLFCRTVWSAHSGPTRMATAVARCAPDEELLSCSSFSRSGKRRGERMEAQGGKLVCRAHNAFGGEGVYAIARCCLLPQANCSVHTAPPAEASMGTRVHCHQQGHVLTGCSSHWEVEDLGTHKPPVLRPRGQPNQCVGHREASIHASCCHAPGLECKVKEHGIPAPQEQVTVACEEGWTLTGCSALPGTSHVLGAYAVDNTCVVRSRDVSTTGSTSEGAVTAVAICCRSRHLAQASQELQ
Chain of human PCSK9 (Q8NBP7 31-152 partner limits assumed): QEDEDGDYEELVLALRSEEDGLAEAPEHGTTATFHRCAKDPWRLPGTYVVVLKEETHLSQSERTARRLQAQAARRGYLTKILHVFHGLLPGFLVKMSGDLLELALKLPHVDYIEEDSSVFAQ
Summary of the method: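 Read-out was TR-FRET ratio (665 nm over 615 nm, 330 nm excitation) between Alexa Fluor 647-human PCSK9 (16 nM added) and Europium Kryptate-human LDLR ectodomain (4 nM added). Compound and PCSK9 were mixed 30 min before LDLR, then incubated 2 h. Inhibition was normalised to DMSO and unlabelled-PCSK9 controls, giving IC50 and Amax.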

Compound: C[C@H]1C(=O)N2[C@@H](COC2(C)C)C(=O)N[C@@]2(Cc3ccc(Cl)cc3)CCCN(C2)C(=O)[C@H](Cc2ccccc2)CC(=O)N1Cc1ccc(Cl)cc1Oc1ccc(-c2cnc(CN(C)C)n2C)cc1
- ring closure, yield of all isomers ([1]; from C[C@H](NCc1ccc(Cl)cc1Oc1ccc(-c2cnc(CN(C)C)n2C)cc1)C(=O)N1[C@H](C(=O)N[C@@]2(Cc3ccc(Cl)cc3)CCCN(C(=O)[C@@H](CC(=O)O)Cc3ccccc3)C2)COC1(C)C, amide bond, HATU, 1.04 mM, 45.0 °C): 69%

Compound: C[C@H]1C(=O)N[C@@H](CO)C(=O)N(C)[C@@]2(Cc3ccc(Cl)cc3)CCCN(C2)C(=O)[C@H](Cc2cccc[n+]2[O-])CC(=O)N1Cc1ccc(Cl)cc1Oc1ccc(-c2cnc(CN(C)C)n2C)cc1
- ring closure, yield of all isomers ([1]; from C[C@H](NCc1ccc(Cl)cc1Oc1ccc(-c2cnc(CN(C)C)n2C)cc1)C(=O)N[C@@H](CO)C(=O)N(C)[C@@]1(Cc2ccc(Cl)cc2)CCCN(C(=O)[C@@H](CC(=O)O)Cc2cccc[n+]2[O-])C1, amide bond, HATU, 0.83 mM, 48.0 °C, 4.0 h): 100%

Compound: COC[C@@H]1NC(=O)[C@H](C)N(Cc2c(F)cc(Cl)cc2Oc2ccc(-c3cnc(CN(C)C)n3C)cc2)C(=O)C[C@@H](Cc2cccc(C)n2)C(=O)N2CCC[C@@](Cc3ccc(Cl)cc3)(C2)N(C)C1=O [Compound 13, (3R,7S,10S,13R)-6-(4-chloro-2-(4-(2-((dimethylamino)methyl)-1-methyl-1H-imidazol-5-yl)phenoxy)-6-fluorobenzyl)-13-(4-chlorobenzyl)-10-(methoxymethyl)-7,12-dimethyl-3-((6-methylpyridin-2-yl)methyl)-1,6,9,12-tetraazabicyclo[11.3.1]heptadecane-2,5,8,11-tetraone]
- ring closure, yield of all isomers ([1]; from COC[C@H](NC(=O)[C@H](C)NCc1c(F)cc(Cl)cc1Oc1ccc(-c2cnc(CN(C)C)n2C)cc1)C(=O)N(C)[C@@]1(Cc2ccc(Cl)cc2)CCCN(C(=O)[C@@H](CC(=O)O)Cc2cccc(C)n2)C1, amide bond, HATU/HOAt/2,6-lutidine, 1.59 mM, 48.0 °C, 16.0 h): 33%
- IC50 (human PCSK9): 0.549 nM
- Max % inhibition (human PCSK9): 112.1%

Compound: C[C@H]1C(=O)N[C@@H](CO)C(=O)N[C@@]2(Cc3ccc(Cl)cc3)CCCN(C2)C(=O)[C@H](Cc2ccccc2)NC(=O)N1Cc1ccc(Cl)cc1Oc1ccc(-c2cnc(CN(C)C)n2C)cc1.Cl [Compound 60, (3S,7S,10S,13R)-3-benzyl-6-(4-chloro-2-(4-(2-((dimethylamino)methyl)-1-methyl-1H-imidazol-5-yl)phenoxy)benzyl)-13-(4-chlorobenzyl)-10-(hydroxymethyl)-7-methyl-1,4,6,9,12-pentaaza-bicyclo[11.3.1]-heptadecane-2,5,8,11-tetraone hydrochloride]
- ring closure, yield of all isomers ([1]; from C[C@@H](C(=O)N[C@@H](CO)C(=O)N[C@@]1(Cc2ccc(Cl)cc2)CCCNC1)N(Cc1ccc(Cl)cc1Oc1ccc(-c2cnc(CN(C)C)n2C)cc1)C(=O)N[C@@H](Cc1ccccc1)C(=O)O, amide bond, HATU/HOAt/2,6-lutidine, 1.0 mM, 25.0 °C, 2.5 h): 55%
- IC50 (human PCSK9): 0.476 nM
- Max % inhibition (human PCSK9): 106.6%

The next lines start with results.

- IC50 (human PCSK9): 0.859 nM
- Max % inhibition (human PCSK9): 99.2%
Compound: C[C@H]1C(=O)N[C@@H](CO)C(=O)N[C@@]2(Cc3ccc(Cl)cc3)CCCN(C2)C(=O)[C@H](Cc2ccccc2)OC(=O)N1Cc1ccc(Cl)cc1Oc1ccc(-c2cnc(CN(C)C)n2C)cc1.Cl [Compound 78, (3S,7S,10S,13R)-3-benzyl-6-(4-chloro-2-(4-(2-((dimethylamino)methyl)-1-methyl-1H-imidazol-5-yl)phenoxy)benzyl)-13-(4-chlorobenzyl)-10-(hydroxymethyl)-7-methyl-4-oxa-1,6,9,12-tetraazabicyclo[11.3.1]heptadecane-2,5,8,11-tetraone hydrochloride]
- ring closure, yield of all isomers ([1]; from C[C@@H](C(=O)N[C@@H](CO)C(=O)N[C@@]1(Cc2ccc(Cl)cc2)CCCNC1)N(Cc1ccc(Cl)cc1Oc1ccc(-c2cnc(CN(C)C)n2C)cc1)C(=O)O[C@@H](Cc1ccccc1)C(=O)O, amide bond, HATU/HOAt, 2,6-lutidine, 1.0 mM, 25.0 °C, 2.25 h, 2 steps): 38%

- IC50 (human PCSK9): 0.941 nM
- Max % inhibition (human PCSK9): 99.4%
Compound: C[C@H]1C(=O)N[C@@H](CO)C(=O)N(C)[C@H](Cc2ccc(Cl)cc2)CN(C)C(=O)[C@H]([C@H]2CCc3ccccc32)CC(=O)N1Cc1ccc(Cl)cc1Oc1ccc(-c2cnc(CN3CCCC3)n2C)cc1.Cl [Compound 86, (2S,5S,8R,12S)-1-(4-chloro-2-(4-(1-methyl-2-(pyrrolidin-1-ylmethyl)-1H-imidazol-5-yl)phenoxy)-benzyl)-8-(4-chlorobenzyl)-12-((R)-2,3-dihydro-1H-inden-1-yl)-5-(hydroxymethyl)-2,7,10-trimethyl-1,4,7,10-tetraazacyclotetradecane-3,6,11,14-tetraone hydrochloride]
- ring closure, yield of all isomers ([1]; from C[C@H](NCc1ccc(Cl)cc1Oc1ccc(-c2cnc(CN3CCCC3)n2C)cc1)C(=O)N[C@@H](COC(C)(C)C)C(=O)N(C)[C@H](Cc1ccc(Cl)cc1)CN(C)C(=O)[C@@H](CC(=O)O)[C@H]1CCc2ccccc21, amide bond, HATU, 1.0 mM, 40.0 °C, 29.0 h, 2 steps): 45%

- IC50 (human PCSK9): 2.21 nM
- Max % inhibition (human PCSK9): 96.3%
Compound: COC[C@@H]1NC(=O)[C@H](C)N(Cc2ccc(Cl)cc2Oc2ccc(-c3cnc(CN4CCCC4)n3C)cc2)C(=O)C[C@@H]([C@H]2CCc3ccccc32)C(=O)N2CCC[C@@](Cc3ccc(Cl)cc3)(C2)NC1=O.O=C(O)C(F)(F)F [Compound 96, (3S,7S,10S,13R)-6-(4-chloro-2-(4-(1-methyl-2-(pyrrolidin-1-ylmethyl)-1H-imidazol-5-yl)phenoxy)benzyl)-13-(4-chlorobenzyl)-3-((R)-2,3-dihydro-1H-inden-1-yl)-10-(methoxymethyl)-7-methyl-1,6,9,12-tetraazabicyclo[11.3.1]heptadecane-2,5,8,11-tetraone trifluoroacetate]
- ring closure, yield of all isomers ([1]; from COC[C@H](NC(=O)[C@H](C)NCc1ccc(Cl)cc1Oc1ccc(-c2cnc(CN3CCCC3)n2C)cc1)C(=O)N[C@@]1(Cc2ccc(Cl)cc2)CCCN(C(=O)[C@@H](CC(=O)O)[C@H]2CCc3ccccc32)C1, amide bond, HATU/HOAt/2,6-lutidine, 1.04 mM, 40.0 °C, 17.0 h): 46%

- IC50 (human PCSK9): 61.2 nM
- Max % inhibition (human PCSK9): 102.4%
Compound: COC[C@@H]1NC(=O)[C@H](C)N(Cc2ccc(Cl)cc2Oc2ccc(-c3cnc(CN(C)C)n3C)cc2)CC[C@@H](Cc2ccccc2)C(=O)N2CCC[C@@](Cc3ccc(Cl)cc3)(C2)NC1=O.O=C(O)C(F)(F)F [Compound 120, (3R,7S,10S,13R)-3-benzyl-6-(4-chloro-2-(4-(2-((dimethylamino)methyl)-1-methyl-1H-imidazol-5-yl)phenoxy)benzyl)-13-(4-chlorobenzyl)-10-(methoxymethyl)-7-methyl-1,6,9,12-tetraazabicyclo[11.3.1]heptadecane-2,8,11-trione trifluoroacetate]
- ring closure, yield of all isomers ([1]; from COC[C@H](NC(=O)[C@H](C)N)C(=O)N[C@@]1(Cc2ccc(Cl)cc2)CCCN(C(=O)[C@@H](CC=O)Cc2ccccc2)C1, amine bond, NaBH(OAc)3/AcOH, 10.0 mM, 25.0 °C, 2.5 h, 4 steps): 0.6%

- IC50 (human PCSK9): 1490 nM
- Max % inhibition (human PCSK9): 76.9%
Compound: CC(C)[C@H]1CC(=O)N(Cc2ccc(Cl)cc2Oc2ccc(-c3cnc(CN(C)C)n3C)cc2)[C@@H](C)C(=O)N[C@@H](CO)C(=O)N[C@@]2(Cc3ccc(Cl)cc3)CCCN(C2)C1=O.Cl [Compound 133, (3R,7S,10S,13R)-6-(4-chloro-2-(4-(2-((dimethylamino)methyl)-1-methyl-1H-imidazol-5-yl)phenoxy)benzyl)-13-(4-chlorobenzyl)-10-(hydroxymethyl)-3-isopropyl-7-methyl-1,6,9,12-tetraazabicyclo[11.3.1]heptadecane-2,5,8,11-tetraone hydrochloride]
- ring closure, yield of all isomers ([1]; from CC(C)[C@@H](CC(=O)N(Cc1ccc(Cl)cc1Oc1ccc(-c2cnc(CN(C)C)n2C)cc1)[C@@H](C)C(=O)N[C@@H](CO)C(=O)N[C@@]1(Cc2ccc(Cl)cc2)CCCNC1)C(=O)O, amide bond, HATU, 1.0 mM, 25.0 °C, 17.0 h): 59%

- IC50 (human PCSK9): 9.21 nM
- Max % inhibition (human PCSK9): 100.8%
Compound: COC[C@@H]1NC(=O)[C@H](C)N(Cc2ccc(Cl)cc2Oc2ccc(-c3cnc(CN(C)C)n3C)cc2)C(=O)O[C@@H](Cc2ccccc2)C(=O)N2CCC[C@@](Cc3ccc(Cl)cc3)(C2)NC1=O.Cl [Compound 156, (3S,7S,10S,13R)-3-benzyl-6-(4-chloro-2-(4-(2-((dimethylamino)methyl)-1-methyl-1H-imidazol-5-yl)-phenoxy)benzyl)-13-(4-chlorobenzyl)-10-(methoxymethyl)-7-methyl-4-oxa-1,6,9,12-tetraazabicyclo[11.3.1]heptadecane-2,5,8,11-tetraone hydrochloride]
- ring closure, yield of all isomers ([1]; from COC[C@H](NC(=O)[C@H](C)N(Cc1ccc(Cl)cc1Oc1ccc(-c2cnc(CN(C)C)n2C)cc1)C(=O)O[C@@H](Cc1ccccc1)C(=O)O)C(=O)N[C@@]1(Cc2ccc(Cl)cc2)CCCNC1, amide bond, HATU/HOAt, 2,6-lutidine, 0.95 mM, 25.0 °C, 1.5 h): 38%
